Test [1] has as its target Prothrombin (Homo sapiens) (UniProt P00734). Kind of test: Inhibition of factor 2a (unknown origin) at IC50 preincubated for 1 min followed by chromogenic substrate addition and measured for 2 mins in presence of AT-III. Conditions: time 3.0 min.
The target in test [2] is Coagulation factor X (Homo sapiens) (UniProt P00742). Nature of the test: Inhibition of factor 10a (unknown origin) at IC90 preincubated for 1 min followed by chromogenic substrate addition and measured for 2 mins in presence of AT-III relative to control. Particulars: time 3.0 min.
Coagulation factor X (Homo sapiens), sequence (P00742 41-179 limits assumed): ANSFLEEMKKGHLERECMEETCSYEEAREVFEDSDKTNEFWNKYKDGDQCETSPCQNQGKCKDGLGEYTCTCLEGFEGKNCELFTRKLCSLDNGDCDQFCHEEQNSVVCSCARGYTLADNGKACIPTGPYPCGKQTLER
Coagulation factor X (Homo sapiens), sequence (P00742 235-488 limits assumed): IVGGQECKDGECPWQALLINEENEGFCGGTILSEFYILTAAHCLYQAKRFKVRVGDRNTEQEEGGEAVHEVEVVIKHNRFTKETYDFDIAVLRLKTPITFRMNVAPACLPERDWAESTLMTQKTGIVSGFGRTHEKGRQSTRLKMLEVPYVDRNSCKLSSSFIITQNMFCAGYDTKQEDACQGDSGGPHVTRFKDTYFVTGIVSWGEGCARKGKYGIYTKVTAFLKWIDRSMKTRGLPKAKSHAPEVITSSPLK
Test [3] concerns the target Prothrombin (Homo sapiens) (UniProt P00734). Kind of test: Inhibition of factor 2a (unknown origin) at IC90 preincubated for 1 min followed by chromogenic substrate addition and measured for 2 mins in presence of AT-III. Conditions: time 3.0 min.
Test [4] concerns the target T1, Coagulation factor IX (Homo sapiens, UniProt P00740). Nature of the test: Inhibition of factor 9a (unknown origin) binding to immobilized biotinylated oHG-11 assessed as activity potency of oligosaccharides multiplied by the percentage of oligosaccharides in dHG-5 by biolayer interferometry relative to dHG-5. For orientation: BLI is a label-free optical method that tracks binding on a fibre tip over time.

In test [5] the target is T2, Coagulation factor VII (Homo sapiens) (UniProt P08709).
T2 sequence (whole entry): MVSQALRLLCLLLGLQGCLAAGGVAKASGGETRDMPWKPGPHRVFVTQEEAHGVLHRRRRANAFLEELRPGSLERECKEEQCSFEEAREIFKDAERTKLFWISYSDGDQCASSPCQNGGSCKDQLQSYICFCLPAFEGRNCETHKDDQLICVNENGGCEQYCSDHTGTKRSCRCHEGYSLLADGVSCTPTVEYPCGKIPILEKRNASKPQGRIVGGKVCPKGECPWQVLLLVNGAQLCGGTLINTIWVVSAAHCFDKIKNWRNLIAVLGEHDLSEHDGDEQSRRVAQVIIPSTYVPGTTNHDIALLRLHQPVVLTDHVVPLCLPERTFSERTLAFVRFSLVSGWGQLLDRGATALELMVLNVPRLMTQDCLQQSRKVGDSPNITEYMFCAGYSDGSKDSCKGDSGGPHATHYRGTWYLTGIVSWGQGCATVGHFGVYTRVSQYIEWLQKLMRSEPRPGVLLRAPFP
Nature of the test: Inhibition of factor 7a (unknown origin) at IC50 using pefachrome factor VIIa as substrate preincubated for 1 min followed by chromogenic substrate addition and measured for 2 mins in presence of AT-III. Particulars: time 3.0 min.

For test [6], the target named is T3, Coagulation factor IX/VIII (Homo sapiens) (UniProt P00740+P00451). Nature of the test: Inhibition of human citrated plasma iXase (factor 8a-factor 9a complex) preincubated for 2 mins followed by factor 10 addition and measured after 1 min by FXa chromogenic substrate SXa-11 based assay relative to dHG-5. Particulars: time 3.0 min. The class given is protein-complex assay.

Test [7] concerns the target Coagulation factor X (Homo sapiens) (UniProt P00742). Nature of the test: Inhibition of factor 10a (unknown origin) at IC50 preincubated for 1 min followed by chromogenic substrate addition and measured for 2 mins in presence of AT-III. Conditions: time 3.0 min.
For test [8], the target named is T2, Coagulation factor VII (Homo sapiens). Nature of the test: Inhibition of factor 7a (unknown origin) at IC50 using pefachrome factor VIIa as substrate preincubated for 1 min followed by chromogenic substrate addition and measured for 2 mins. Conditions: time 3.0 min.
Test [9] concerns the target Coagulation factor XI (Homo sapiens) (UniProt P03951). Kind of test: Inhibition of factor 11a (unknown origin) at IC50 using S-2366 as substrate preincubated for 1 min followed by chromogenic substrate addition and measured for 2 mins. Particulars: time 3.0 min.
For test [10], the target named is Coagulation factor X (Homo sapiens) (UniProt P00742). Nature of the test: Inhibition of factor 10a (unknown origin) at IC50 preincubated for 1 min followed by chromogenic substrate addition and measured for 2 mins. Particulars: time 3.0 min.
In test [11] the target is Coagulation factor XI (Homo sapiens) (UniProt P03951). Kind of test: Inhibition of factor 11a (unknown origin) at IC50 using S-2366 as substrate preincubated for 1 min followed by chromogenic substrate addition and measured for 2 mins in presence of AT-III. Conditions: time 3.0 min.
Coagulation factor XI (Homo sapiens), sequence (P03951 19-387 limits assumed): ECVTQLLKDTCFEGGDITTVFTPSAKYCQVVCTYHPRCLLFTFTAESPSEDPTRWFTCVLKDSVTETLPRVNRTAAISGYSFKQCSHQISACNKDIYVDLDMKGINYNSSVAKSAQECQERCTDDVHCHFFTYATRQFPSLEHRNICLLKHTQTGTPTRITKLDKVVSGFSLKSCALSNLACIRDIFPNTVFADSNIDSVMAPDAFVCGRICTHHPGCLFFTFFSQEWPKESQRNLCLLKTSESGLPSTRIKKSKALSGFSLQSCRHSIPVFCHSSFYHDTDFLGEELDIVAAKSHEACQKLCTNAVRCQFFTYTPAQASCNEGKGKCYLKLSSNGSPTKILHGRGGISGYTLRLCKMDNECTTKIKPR
Coagulation factor XI (Homo sapiens), sequence (P03951 388-625 limits assumed): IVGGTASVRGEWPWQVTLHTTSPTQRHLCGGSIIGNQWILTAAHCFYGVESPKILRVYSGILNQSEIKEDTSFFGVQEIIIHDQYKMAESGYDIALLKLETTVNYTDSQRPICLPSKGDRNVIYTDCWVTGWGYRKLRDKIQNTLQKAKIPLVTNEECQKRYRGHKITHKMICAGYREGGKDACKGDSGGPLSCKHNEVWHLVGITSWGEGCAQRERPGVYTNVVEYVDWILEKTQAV
Test [12] has the same target. Kind of test: Inhibition of factor 11a (unknown origin) at IC90 using S-2366 as substrate preincubated for 1 min followed by chromogenic substrate addition and measured for 2 mins in presence of AT-III. Particulars: time 3.0 min.
Test [13] has as its target T3, Coagulation factor IX/VIII (Homo sapiens). Nature of the test: Inhibition of human citrated plasma iXase (factor 8a-factor 9a complex) assessed as activity potency of oligosaccharides multiplied by the percentage of oligosaccharides in dHG-5 preincubated for 2 mins followed by factor 10 addition and measured after 1 min by FXa chromogenic substrate SXa-11 based assay relative to dHG-5. The test is classed as protein-complex assay. Conditions: time 3.0 min.

The test system of test [14] is Rattus norvegicus. Nature of the test: Antithrombotic activity in thromboplastin and stasis-induced Sprague-Dawley rat deep venous thrombosis model assessed as reduction in venous thrombosis at 1.84 mg/kg, sc administered 1 hr prior to thromboplastin addition for 20 secs followed by establishment of stasis for 20 mins relative to dHG-5. The class given is functional. Particulars: time 80.33 min, 1.339 h.

Test [15] relates to Rattus norvegicus. Kind of test: Antithrombotic activity in thromboplastin and stasis-induced Sprague-Dawley rat deep venous thrombosis model assessed as reduction in venous thrombosis by measuring activity potency of oligosaccharides multiplied by the percentage of oligosaccharides in dHG-5 at 1.84 mg/kg, sc administered 1 hr prior to thromboplastin addition for 20 secs followed by establishment of stasis for 20 mins relative to dHG-5. The class given is functional. Conditions: time 80.33 min, 1.339 h.

The target of test [16] is T4, Coagulation factor XII (Homo sapiens) (UniProt P00748).
T4 sequence (whole entry): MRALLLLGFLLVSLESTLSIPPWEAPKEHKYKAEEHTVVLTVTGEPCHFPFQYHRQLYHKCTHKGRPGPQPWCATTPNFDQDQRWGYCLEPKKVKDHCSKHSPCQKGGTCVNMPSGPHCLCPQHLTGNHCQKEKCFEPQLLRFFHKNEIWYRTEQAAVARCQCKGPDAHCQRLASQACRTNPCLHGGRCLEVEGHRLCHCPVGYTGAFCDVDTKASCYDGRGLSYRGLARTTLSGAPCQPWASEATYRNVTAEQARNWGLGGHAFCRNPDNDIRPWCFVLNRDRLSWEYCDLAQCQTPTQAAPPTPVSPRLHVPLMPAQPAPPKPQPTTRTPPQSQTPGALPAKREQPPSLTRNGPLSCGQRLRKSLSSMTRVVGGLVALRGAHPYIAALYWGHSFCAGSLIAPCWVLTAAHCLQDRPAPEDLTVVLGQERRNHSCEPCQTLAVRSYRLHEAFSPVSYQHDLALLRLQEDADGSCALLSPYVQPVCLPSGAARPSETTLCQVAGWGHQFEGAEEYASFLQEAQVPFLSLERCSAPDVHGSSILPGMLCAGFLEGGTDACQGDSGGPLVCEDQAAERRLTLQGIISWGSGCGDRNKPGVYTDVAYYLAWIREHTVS
Nature of the test: Inhibition of factor 12a (unknown origin) at IC50 using kallikrein chromogenic substrate preincubated for 1 min followed by chromogenic substrate addition and measured for 2 mins in presence of AT-III. Particulars: time 3.0 min.

In test [17] the target is T1, Coagulation factor IX. Kind of test: Inhibition of factor 9a (unknown origin) binding to immobilized biotinylated oHG-11 by biolayer interferometry relative to dHG-5.
Test [18] deals with Prothrombin (Homo sapiens) (UniProt P00734). Nature of the test: Inhibition of factor 2a (unknown origin) at IC50 preincubated for 1 min followed by chromogenic substrate addition and measured for 2 mins. Particulars: time 3.0 min.
Test [19] concerns Plasma. Nature of the test: Anticoagulation activity in human plasma assessed as drug level causing 20 times doubling of APTT preincubated for 2 mins followed by APTT reagent and measured after 3 mins by coagulometric method relative to dHG-5. The class given is functional. Conditions: time 5 min.
Test [20] has as its target T4, Coagulation factor XII (Homo sapiens). Kind of test: Inhibition of factor 12a (unknown origin) at IC50 using kallikrein chromogenic substrate preincubated for 1 min followed by chromogenic substrate addition and measured for 2 mins. Particulars: time 3.0 min.
Test [21] deals with Plasma. Kind of test: Anticoagulation activity in human plasma assessed as drug level causing 20 times doubling of APTT by measuring activity potency of oligosaccharides multiplied by the percentage of oligosaccharides in dHG-5 preincubated for 2 mins followed by APTT reagent and measured after 3 mins by coagulometric method relative to dHG-5. The class given is functional. Conditions: time 5 min.

Activity calls are given as the source filed them. No cut-off for these calls is given here.

T1 sequence (P00740 47-191 limits assumed): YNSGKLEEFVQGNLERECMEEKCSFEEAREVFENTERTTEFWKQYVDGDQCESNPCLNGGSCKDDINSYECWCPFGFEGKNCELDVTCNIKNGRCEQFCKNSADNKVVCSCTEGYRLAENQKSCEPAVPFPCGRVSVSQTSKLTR
T1 sequence (P00740 227-461 limits assumed): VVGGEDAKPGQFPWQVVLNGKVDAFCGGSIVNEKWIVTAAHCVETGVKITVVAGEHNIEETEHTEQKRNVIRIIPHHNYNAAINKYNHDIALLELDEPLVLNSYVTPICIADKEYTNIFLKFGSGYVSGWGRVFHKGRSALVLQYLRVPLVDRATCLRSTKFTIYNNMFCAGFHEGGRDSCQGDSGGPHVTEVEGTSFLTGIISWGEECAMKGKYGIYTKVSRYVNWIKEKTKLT

On to `CC(=O)N[C@H]1[C@H](O[C@@H]([C@H](O[C@@H]2O[C@@H](C)[C@@H](OS(=O)(=O)[O-])[C@@H](OS(=O)(=O)O)[C@@H]2O)[C@@H](O)CO)[C@H](O)C(=O)[O-])O[C@H](COS(=O)(=O)[O-])[C@H](OS(=O)(=O)[O-])[C@@H]1O[C@@H]1O[C@H](C(=O)[O-])[C@@H](O[C@@H]2O[C@H](COS(=O)(=O)[O-])[C@H](OS(=O)(=O)[O-])[C@H](O[C@@H]3O[C@H](C(=O)[O-])[C@@H](O[C@@H]4O[C@H](COS(=O)(=O)[O-])[C@H](OS(=O)(=O)[O-])[C@H](O[C@@H]5O[C@H](C(=O)[O-])[C@@H](O[C@@H]6O[C@H](COS(=O)(=O)[O-])[C@H](OS(=O)(=O)[O-])[C@H](O[C@@H]7O[C@H](C(=O)[O-])[C@@H](O[C@@H]8O[C@H](COS(=O)(=O)[O-])[C@H](OS(=O)(=O)[O-])[C@H](O[C@@H]9O[C@H](C(=O)[O-])[C@@H](O[C@@H]%10O[C@H](COS(=O)(=O)[O-])[C@H](OS(=O)(=O)[O-])[C@H](O[C@@H]%11O[C@H](C(=O)[O-])[C@@H](O[C@@H]%12O[C@H](COS(=O)(=O)[O-])[C@H](OS(=O)(=O)[O-])[C@H](O[C@@H]%13OC(C(=O)O)=C[C@H](O[C@@H]%14O[C@@H](C)[C@@H](OS(=O)(=O)[O-])[C@@H](OS(=O)(=O)O)[C@@H]%14O)[C@H]%13O)[C@H]%12NC(C)=O)[C@H](O[C@@H]%12O[C@@H](C)[C@@H](OS(=O)(=O)[O-])[C@@H](OS(=O)(=O)O)[C@@H]%12O)[C@H]%11O)[C@H]%10NC(C)=O)[C@H](O[C@@H]%10O[C@@H](C)[C@@H](OS(=O)(=O)[O-])[C@@H](OS(=O)(=O)O)[C@@H]%10O)[C@H]9O)[C@H]8NC(C)=O)[C@H](O[C@@H]8O[C@@H](C)[C@@H](OS(=O)(=O)[O-])[C@@H](OS(=O)(=O)O)[C@@H]8O)[C@H]7O)[C@H]6NC(C)=O)[C@H](O[C@@H]6O[C@@H](C)[C@@H](OS(=O)(=O)[O-])[C@@H](OS(=O)(=O)O)[C@@H]6O)[C@H]5O)[C@H]4NC(C)=O)[C@H](O[C@@H]4O[C@@H](C)[C@@H](OS(=O)(=O)[O-])[C@@H](OS(=O)(=O)O)[C@@H]4O)[C@H]3O)[C@H]2NC(C)=O)[C@H](O[C@@H]2O[C@@H](C)[C@@H](OS(=O)(=O)[O-])[C@@H](OS(=O)(=O)O)[C@@H]2O)[C@H]1O.[Na+].[Na+].[Na+].[Na+].[Na+].[Na+].[Na+].[Na+].[Na+].[Na+].[Na+].[Na+].[Na+].[Na+].[Na+].[Na+].[Na+].[Na+].[Na+].[Na+].[Na+].[Na+].[Na+].[Na+].[Na+].[Na+].[Na+].[Na+].[Na+]`, for which the inhibition result in [1], in test [2], in test [5], in [7], in test [9] and in test [10] was “inactive” each time. Also, the inhibition result in test [11], in [16], in test [18] and in test [20] was “inactive” each time. The inhibition result in [3] and in [12] was “Active” in each case. In addition, the Ratio came to 11.7 U on Coagulation factor IX [4]; 384 U in test [6]; 25.4 U in [13]; 244.26 U in the test on Rattus norvegicus [14]; 16.12 U in the test on Rattus norvegicus [15]; 177 U on Coagulation factor IX [17]. Moreover, the results for the Ratio in the test with Plasma [19] and in the test on Plasma [21] were 232.47 U and 15.39 U, respectively. The “inhibition (active/not active)” value in [8] is “inactive”.
